From EP4768498A1, “PEPTIDE, DROPLET FORMING KIT, DROPLET FORMING METHOD, HYDROPHOBIC SUBSTANCE CONCENTRATION METHOD, AND PROTEIN FOLDING METHOD” (National University Corporation Tokyo University Of …, priority 2023, dated 2026)
Positions of bridges follow the written chain, without caps; N, C: chain ends. No end group written: not given here.

What was measured:
[1] = Transmittance measurement (transition temperature); format: physicochemical; conditions: 2 wt% solution, 50 mM Tris-HCl (pH: 7.5) containing 0.3 M sodium chloride, absorbance at 600 nm
Protocol: FF-ELP4 or LL-ELP4 was dissolved in 50 mM Tris-HCl (pH: 7.5) containing 0.3 M sodium chloride and incubated at 60°C. LL-ELP4 was dissolved in 50 mM Tris-HCl (pH: 7.5) to a final concentration of 2 wt%. Since FF-ELP4 could not be dissolved to a final concentration of 2 wt%, it was dissolved in 50 mM Tris-HCl (pH: 7.5) to a final concentration of 1 wt%. Transmittance measurement was carried out using an ultraviolet-visible spectrophotometer V-650 manufactured by JASCO Corporation (Tokyo, Japan). For the samples prepared as described above, absorbance at a wavelength of 600 nm was monitored while changing the temperature. A quartz cell (optical path length: 10 mm) of Sansyo Co., Ltd. was used as a measurement cell. […] LL-ELP4-SS was dissolved in 50 mM Tris-HCl (pH: 7.5) containing 0.3 M sodium chloride and incubated at 60°C. LL-ELP4-SS was dissolved in 50 mM Tris-HCl (pH: 7.5) to a final concentration of 2 wt%. Transmittance measurement was carried out using an ultraviolet-visible spectrophotometer V-650 manufactured by JASCO Corporation (Tokyo, Japan). For the samples prepared as described above, absorbance at a wavelength of 600 nm was monitored while changing the temperature. A quartz cell (optical path length: 10 mm) of Sansyo Co., Ltd. was used as a measurement cell.

[2] = Phase-contrast microscope observation of droplets; format: physicochemical; conditions: 60°C
Protocol: Phase-contrast microscope observation was carried out using IX-73 manufactured by Olympus Corporation (Tokyo, Japan). A sample was dropped onto a slide glass, and a cover glass was placed over the sample through a silicone spacer having a thickness of 0.2 mm. The sample was observed while incubating at 60°C. The samples were prepared by dissolving FF-ELP4 or LL-ELP4 in 50 mM Tris-HCl (pH: 7.5) containing 0.3 M sodium chloride. FF-ELP4 was dissolved to a final concentration of 1 wt%. LL-ELP4 was dissolved to a final concentration of 5 wt%.
(§1) Phase-contrast microscope observation was carried out using IX-73 manufactured by Olympus Corporation (Tokyo, Japan). A sample in which a cover glass was placed on the peptide solution through a silicone spacer having a thickness of 0.2 mm on a slide glass was observed while incubating at 60°C. The peptide solution was prepared by dissolving LL-ELP4 to 2 wt% and LL-ELP4-SS to 0.7 mM (0.16 wt%) in 50 mM Tris-HCl (pH: 7.5) containing 0.3 M sodium chloride.
as §1, with “LL-ELP4-SS” for “LL-ELP4”, “wt%” for “wt% and LL-ELP4-SS to 0.7 mM (0.16 wt%)”
(§2) A folding test of denatured BPTI was performed in the same manner as in <Folding test of denatured BPTI: LL-ELP4/LL-ELP4-SS mixed solution> described above, except that LL-ELP4-SS was used alone instead of the combination of LL-ELP4 and LL-ELP4-SS. The final concentration of LL-ELP4-SS in the test solution was 0.16 wt%.

[3] = tested on: Reduced and denatured BPTI; experiment: Folding test of denatured BPTI; format: biochemical, Bovine; conditions: LL-ELP4-SS alone 0.16 wt%, no droplets, no centrifugation, BPTI 30 µM, 60°C
Protocol: LL-ELP4 and LL-ELP4-SS were dissolved in a buffer (50 mM Tris-HCl, 0.3 M NaCl, pH: 7.5) and pre-incubated at 60°C for 3 minutes. […] The mixture was incubated at 60°C, and when 1 minute, 10 minutes, and 60 minutes had elapsed, it was centrifuged (10,000 rpm, 25°C, 10 seconds) using a high-spin mini centrifuge HSC-12000 manufactured by Taiyo Corporation (Osaka, Japan) and quickly separated into a supernatant and a precipitate. To both the supernatant and the precipitate, 1 M aqueous HCl was added to quench the reaction. The samples were analyzed by reverse-phase high-performance liquid chromatography (RP-HPLC) using a Primaide HPLC system (1410 UV detector, 1310 column oven, and 1110 pump) manufactured by Hitachi, Ltd. (Tokyo, Japan) and a TSKgel Protein C4-300 column (4.6 mm i.d. × 150 mm) manufactured by Tosoh Corporation (Tokyo, Japan) at a flow rate of 1.0 mL min-1 (Solvent A: water containing 0.05% TFA; Solvent B: acetonitrile containing 0.05% TFA; linear gradient of Solvent A: 95% at 0 min, 80% at 15 min, and 30% at 115 min).
as §2

[4] = tested on: Reduced and denatured BPTI; experiment: Evaluation of incorporation of denatured BPTI into droplets; design: species or system Bovine; conditions: for Reduced and denatured BPTI Inside droplets / Reduced and denatured BPTI Outside droplets: BPTI 30 µM, 60°C overnight
Protocol: (§3) FF-ELP4 or LL-ELP4 was dissolved in 50 mM Tris-HCl (pH: 7.5) containing 0.3 M sodium chloride, and pre-incubated at 60°C for 1 minute. […] The mixture was incubated at 60°C overnight, centrifuged (8,000 rpm, 25°C, 30 seconds) using a high-spin mini centrifuge HSC-12000 manufactured by Taiyo Corporation (Osaka, Japan), and quickly separated into a supernatant and a precipitate (droplets). 400 µL of a 1 M HCl aqueous solution was added to each of the supernatant and the precipitate to stop the reaction. For each of the supernatant and the precipitate, the reduced and denatured BPTI or the native BPTI was quantified by HPLC analysis. The analysis was performed by reverse-phase high-performance liquid chromatography (RP-HPLC) using a Primaide HPLC system (1410 UV detector, 1310 column oven, 1110 pump) manufactured by Hitachi High-Tech Corporation (Tokyo, Japan) and a TSKgel Protein C4-300 column (4.6 mmφ × 150 mm) manufactured by Tosoh Corporation (Tokyo, Japan) at a flow rate of 1.0 mL·min^-1 (Solvent A: water containing 0.05% TFA, Solvent B: acetonitrile containing 0.05% TFA; ratio of Solvent A: linear gradient of 95% at 0 min, 80% at 15 min, and 30% at 115 min).

Native BPTI = experiment: Evaluation of incorporation of native BPTI into droplets; design: species or system Bovine; conditions: BPTI 30 µM, 60°C overnight
Protocol: as §3

| Substance | transition temperature [1] [°C] | droplet formation ([2]; 0.16 wt% solution in the folding test) | droplets observed ([2]; 2 wt% solution) | added reduced and denatured BPTI detected as native structural BPTI [3] [%] | droplets observed ([2]; 5 wt% solution) | Reduced and denatured BPTI Inside droplets ([4]; peptide 2 wt%) [%] | Reduced and denatured BPTI Outside droplets ([4]; peptide 2 wt%) [%] | Reduced and denatured BPTI Inside droplets ([4]; peptide 5 wt%) [%] | Reduced and denatured BPTI Outside droplets ([4]; peptide 5 wt%) [%] | aggregation of reduced and denatured BPTI recovered from the droplets ([4]; peptide 5 wt%, redispersed in water) | Native BPTI Inside droplets (Native BPTI; peptide 2 wt%) [%] | Native BPTI Outside droplets (Native BPTI; peptide 2 wt%) [%] | Native BPTI Inside droplets (Native BPTI; peptide 5 wt%) [%] | Native BPTI Outside droplets (Native BPTI; peptide 5 wt%) [%] |
| --- | --- | --- | --- | --- | --- | --- | --- | --- | --- | --- | --- | --- | --- | --- |
| LL-(VPGVG)2-CGHC-(VPGVG)2 (LLVPGVGVPGVGCGHCVPGVGVPGVG; disulfide 13-16 (inferred)) [LL-ELP4-SS] | 48 | droplets were not formed | Droplets of appropriate size were observed | ≥ 99 | – | – | – | – | – | – | – | – | – | – |
| Ac-LLVPGVGVPGVGVPGVGVPGVG-NH2 [LL-ELP4, LL-(VPGVG)4] | 53 | – | – | – | droplets of appropriate size were observed | 91 | 9 | > 99 | < 1 | aggregation was suppressed | 3 | 97 | 7 | 93 |
